Experimental data: ChEMBL document CHEMBL4495564, “Identification of inhibitors of SARS-Cov2 M-Pro enzymatic activity using a small molecule repurposing screen” (2020)
Several values for one entry are separate records, joined by “and”; a condition that tells them apart may be missing. Equal entries are not always repeated. Structures can show the parent of a compound that is named as a salt.

Key:
[1] = target: Replicase polyprotein 1ab (Severe acute respiratory syndrome coronavirus 2, UniProt P0DTD1); test: biochemical; assay type: functional
[2] = target: Chymotrypsin (Homo sapiens) (UniProt Q99895+P17538+P40313+Q6GPI1); test: Chymotrypsin inhibition percentage at 10 µM by FRET kind of response from peptide substrate; assay type: functional
[3] = target: Replicase polyprotein 1ab (Middle East respiratory syndrome-related coronavirus (isolate UnitedKingdom/H123990006/2012) (Betacoronavirus England 1) (Humancoronavirus EMC), UniProt K9N7C7); test: biochemical; assay type: functional
[4] = target: Replicase polyprotein 1ab (Middle East respiratory syndrome-related coronavirus (isolate UnitedKingdom/H123990006/2012) (Betacoronavirus England 1) (Humancoronavirus EMC)) (UniProt K9N7C7); details: at 10 µM

Chain of Replicase polyprotein 1ab (Middle East respiratory syndrome-related coronavirus (isolate UnitedKingdom/H123990006/2012) (Betacoronavirus England 1) (Humancoronavirus EMC), UniProt K9N7C7) (K9N7C7 3248-3553 limits assumed): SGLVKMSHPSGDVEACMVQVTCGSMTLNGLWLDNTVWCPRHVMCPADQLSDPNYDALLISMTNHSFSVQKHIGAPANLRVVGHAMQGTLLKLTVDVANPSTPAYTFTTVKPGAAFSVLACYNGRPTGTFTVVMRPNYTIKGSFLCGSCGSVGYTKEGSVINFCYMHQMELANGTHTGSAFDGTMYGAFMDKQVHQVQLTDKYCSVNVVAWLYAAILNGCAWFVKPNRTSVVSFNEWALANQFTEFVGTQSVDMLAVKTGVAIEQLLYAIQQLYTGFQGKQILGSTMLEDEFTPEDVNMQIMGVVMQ

| Structure (SMILES) | IC50 [1] [nM] | inhibition [2] | IC50 [3] [nM] | inhibition [4] |
| --- | --- | --- | --- | --- |
| CN1CCN(C(=O)c2ccc(-c3ccc4c(C=O)c(O)ccc4c3)s2)CC1 | 1330 | 9.67% |  |  |
| CCOc1cc(C(Nc2cc(C)ccn2)c2ccc3cccnc3c2O)ccc1OC (configuration not stated) | < 270 | 13.3% |  |  |
| CCOC(=O)c1c(N)sc(-c2ccccc2)c1C | 3190 | 5.82% |  |  |
| Sc1nnnn1-c1ccccc1 | 2360 | 4.48% |  |  |
| O=c1c(O)cccc2cc(O)c(O)c(O)c12 [PURPUROGALLIN] | 4580 | 9.33% |  |  |
| Nc1nc(S)c2ncn(C3OC(CO)C(O)C3O)c2n1 (configuration not stated) | 1080 | 7.56% |  |  |
| Cc1c(-c2cnccn2)ssc1=S [OLTIPRAZ] | 620 | 9.89% | > 10000 | 10% and 0% |
| CC(CN1CC(=O)NC(=O)C1)N1CC(=O)NC(=O)C1 (configuration not stated) [RAZOXANE] | 3190 | -0.92% | > 10000 | 7% |
| CC(C)Nc1cccnc1N1CCN(C(=O)c2cc3cc(NS(C)(=O)=O)ccc3[nH]2)CC1 [DELAVIRDINE MESYLATE] | 3990 | 9.13% | > 10000 | 34% |
| Cc1ccc(S(=O)(=O)N[C@@H](Cc2ccccc2)C(=O)CCl)cc1 [TPCK] | 1370 | 39.6% |  |  |
| Sc1nnc(Nc2ccccc2)s1 | 390 | 4.67% |  |  |
| O=C1C(Cl)=C(Cl)C(=O)C(Cl)=C1Cl [CHLORANIL] | < 20 | 10.1% |  |  |
| O=C1C=Cc2cc(Br)ccc2C1=O | 160 | 8.47% | > 10000 | 9% and 0% |
| Nc1ccc2cc3ccc(N)cc3nc2c1 [PROFLAVINE] | 360 | 16.3% | > 10000 |  |
| Cc1c(OCC(F)(F)F)ccnc1C[S+]([O-])c1nc2ccccc2[nH]1 (configuration not stated) [LANSOPRAZOLE] | 390 | 6.43% and 5.66% | > 10000 | 47% |
| Cc1ccc(-n2sc(=O)n(Cc3ccc(F)cc3)c2=O)cc1 | 230 | 24.5% | > 10000 | 35% |
| Cc1ccc(S(=O)(=O)/C=C/C#N)cc1 | 820 |  | > 10000 | 17% |
| CN1CCN(C2=C(Cl)C(=O)N(c3ccc(Cl)c(Cl)c3)C2=O)CC1 | < 1230 | 9.67% |  |  |
| CC(C)(C)OC(=O)NCCc1nnc(S(=O)(=O)Cc2ccc(Cl)cc2Cl)o1 | 4220 | 103% |  |  |
